The test system of data set [1] is HUVEC. Briefly: In vitro cell proliferation inhibition assay (Example 10). The settings on record: free drug/linker payload, 5 days. The data set is classed as cell-based, human. How it is done: (§1) The effects of antibody drug-conjugates (drug to antibody ratio (DAR) varying from 0.9 to 3.5) containing a drug (maytansine or camptothecin) assessed in cultured mouse (MS1) and human (HUVEC, and MiaPaCa2) cells. The structures of the ADC tested are listed in Table 8 and shown in FIG. 19 (ADC) and FIG. 26 (ADC2, ADC3, and ADC4). Both Exemplary Antibody 1 and Exemplary Antibody 2 contain human IgG1 constant region with YTEC mutation. Cells were incubated for 5 days with the antibody drug conjugate before assessing cell viability on day 5.
(§2) In this experiment, different payloads were respectively assessed in cultured mouse (MS1) and human (MiaPaCa2 and HUVEC) cells. Cells were treated incubated for 5 days with the antibody drug conjugate before assessing cell viability on day 5.

For data set [2], the system named is MS1. The description is as above. The settings on record: free drug/linker payload, 5 days. The data set is classed as cell-based, mouse. The procedure: as §1, §2
The conditions of data set [3]: cited from earlier work.
Data set [4] deals with MiaPaCa2. Briefly: In vitro cell proliferation inhibition assay (Example 10). Type of data set: cell-based, human. Conditions: free drug/linker payload; 5 days. How it is done: as §1, §2
Data set [5] addresses T1, human TM4SF1 (transmembrane-4 L six family member-1), on HUVEC cells (UniProt P30408 1-202).
T1 chain: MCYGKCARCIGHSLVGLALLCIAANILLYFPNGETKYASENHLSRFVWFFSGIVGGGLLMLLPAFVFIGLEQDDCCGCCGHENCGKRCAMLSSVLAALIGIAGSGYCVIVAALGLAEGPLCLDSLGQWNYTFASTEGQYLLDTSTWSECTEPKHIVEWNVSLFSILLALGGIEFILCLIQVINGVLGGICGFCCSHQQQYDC
Kind of data set: flow cytometry, HUVEC. Background: In flow cytometry, cells or beads pass a laser one at a time.

As for `CC[C@@]1(O)C(=O)OCc2c1cc1n(c2=O)Cc2cc3ccccc3nc2-1` [payload 3, Camptothecin], the EC50 (as a rule, the concentration giving half of the maximal effect) amounted to 1.89 nM in data set [1] (Homo sapiens, HUVEC, 120 h) and 34.3 nM in data set [2] (Mus musculus, MS-1, 120 h).
Turning to Combretastatin [CA4P], the Overall survival in data set [3] (Phase II FALCON study, reduced from 16.2) is 13.6 months. Also, the “Patients who experienced heart attacks while being treated” value in data set [3] (human, in vivo) is “seven”.
For the molecule “Maleimide-ethylamino-nosyl-Ahx-Maytansine [payload 1]”, the concentration for a half-maximal effect (EC50) in data set [1] was 0.114 nM; in data set [4] it was 0.0395 nM.
Regarding “Maleimide-tetrazine-PEG3-methyl-EDA-nosyl-Camptothecin [payload 2]”, the EC50 in data set [1] worked out at 1450 nM; in data set [2], 6710 nM.

B1: AGX-A07 "YTEC" variant (anti-TM4SF1 antibody AGX-A07 with Fc mutations N297C, M252Y, S254T and T256E), naked antibody (antibody, V domains shown)
VH: QIQLVQSGPELKKPGETVKISCKASGYTFTNYGVKWVKQAPGKDLKWMGWINTYTGNPIYAADFKGRFAFSLETSASTAFLQINNLKNEDTATYFCVRFQYGDYRYFDVWGAGTTVTVSS
VL: QIILSQSPAILSASPGEKVTMTCRANSGISFINWYQQKPGSSPKPWIYGTANLASGVPARFGGSGSGTSYSLTISRVEAEDAATYYCQQWSSNPLTFGAGTKLELR
On to B1, for which the EC50 in data set [5] was 1.75 nM.
